This note sets out measurements from ChEMBL document CHEMBL1201862, “PubChem BioAssay data set” (2004).

Some test systems named below: CAKI-1; HCC 2998; HCT-116; HCT-15; HL-60; HOP-92; K562; KM12; MOLT-4; NCI-H23; NCI-H460; NCI/ADR-RES; OVCAR-5; RPMI-8226; SF-268; SN12C; SNB-19; SW-620; UACC-257; UACC-62.
Common to all, as to test: DTP human tumour cell line panel, 48 h

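Grown in 96-well plates, cells were treated for 48 hours with each compound at five concentrations. Insufficient inhibition: endpoint recorded as highest concentration tested. GI50: concentration for 50% inhibition of growth.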 Active and inactive are the calls of the source. No stated cut-off is given here; in the data, active = GI50 up to about 1.1 µM and inactive = higher. Where a SMILES comes first, the peptide text is derived from it. [ ]: non-standard residue; d: D form. Ac5c = NC1(C(=O)O)CCCC1 Where only a bound is given, the exact number is not on record here.

Regarding `NS(=O)(=O)c1cc2c(cc1Cl)NCNS2(=O)=O` [HYDROCHLOROTHIAZIDE], the GI50 (as a rule, the concentration giving 50% growth inhibition) with CAKI-1 is > 100 µM (inactive); with HCC 2998, > 100 µM (inactive); with HCT-116, > 100 µM (inactive); in the experiment on HCT-15 it was above 100 µM; in the experiment on HL-60, > 100 µM (inactive); with HOP-92, > 100 µM (inactive). The GI50 in the experiment on K562, in the experiment with KM12, with MOLT-4, with NCI-H23, in the experiment with NCI-H460 and in the experiment on NCI/ADR-RES was > 100 µM (inactive) each time. The GI50 in the experiment with OVCAR-5, in the experiment with RPMI-8226, in the experiment with SF-268, in the experiment on SN12C, in the experiment on SNB-19 and with SW-620 was > 100 µM (inactive) throughout. For the same molecule, the GI50 in the experiment on UACC-257 is > 100 µM (inactive).
As for `CCCCCCNC(=O)c1cc(CCc2cc(O)ccc2O)ccc1O`, the GI50 in the experiment with CAKI-1 is 3.32 µM (inactive); with HCC 2998 it was 3.15 µM (inactive); with HCT-15, 2.48 µM; with HL-60, 0.723 µM (active); with HOP-92, 1.72 µM (inactive); with K562 it was 2.38 µM (inactive). In addition, the GI50 in the experiment with KM12 was 4.46 µM (inactive); in the experiment with MOLT-4 it was 1.93 µM (inactive); with NCI-H23 it was 7.89 µM (inactive); in the experiment with NCI-H460, 8.57 µM (inactive); in the experiment on NCI/ADR-RES, 3.61 µM (inactive); in the experiment with OVCAR-5, 7.05 µM (inactive). Moreover, the 50% growth inhibitory concentration (GI50) in the experiment on RPMI-8226 is 1.11 µM (active); in the experiment with SF-268, 2.77 µM (inactive); in the experiment with SNB-19, 10.7 µM (inactive); in the experiment on SW-620, 7.66 µM (inactive); with UACC-257 it was 2.2 µM (inactive).
With `O=C1N[C@@H](c2c[nH]c3cc(Br)ccc23)C(=O)N[C@H]1c1c[nH]c2cc(Br)ccc12`, the GI50 was > 100 µM (inactive) in the experiment on HCC 2998; > 100 µM (inactive) with HCT-116; above 100 µM with HCT-15; > 100 µM (inactive) in the experiment with HL-60; 40.6 µM (inactive) with HOP-92; > 100 µM (inactive) with K562. The GI50 was 83.9 µM (inactive) in the experiment on KM12; > 100 µM (inactive) in the experiment with NCI-H23; > 100 µM (inactive) in the experiment on NCI-H460; > 100 µM (inactive) in the experiment on NCI/ADR-RES; > 100 µM (inactive) in the experiment with OVCAR-5; > 100 µM (inactive) with RPMI-8226. In addition, the GI50 in the experiment with SF-268 was 47.4 µM (inactive); in the experiment with SN12C it was > 100 µM (inactive); with SNB-19, > 100 µM (inactive); in the experiment on SW-620 it was > 100 µM (inactive); with UACC-257 it was > 100 µM (inactive); in the experiment with UACC-62, > 100 µM (inactive).
For the molecule `C/C(=N\Nc1nc2ccccc2n1C)c1cc2ccccc2cn1`, the GI50 in the experiment on CAKI-1 is < 0.01 µM (active); in the experiment with HCC 2998 it was 11.6 µM (inactive); with HCT-116 it was < 0.01 µM (active); in the experiment with HCT-15 it was below 0.01 µM; in the experiment with HL-60 it was 0.0103 µM (active); in the experiment on HOP-92, 0.321 µM (active). Also, the GI50 is < 0.0135 µM (active) in the experiment with K562; < 0.025 µM (active) with KM12; < 0.01 µM (active) in the experiment with MOLT-4; < 0.0172 µM (active) with NCI-H23; 0.0653 µM (active) in the experiment with NCI-H460; < 0.0182 µM (active) with NCI/ADR-RES. For the same molecule, the concentration for 50% growth inhibition (GI50) in the experiment with RPMI-8226 was < 0.01 µM (active); in the experiment on SF-268 it was < 0.0294 µM (active); in the experiment with SN12C it was < 0.01 µM (active); in the experiment on SNB-19, 0.352 µM (active); in the experiment on SW-620, < 0.0118 µM (active); in the experiment on UACC-257, < 0.0105 µM (active). In the experiment on UACC-62, the GI50 is 0.0403 µM (active).
Turning to `Brc1ccc(C2C3CSc4ccccc4C3=NN2c2ccccc2)cc1` (stereo not drawn), the GI50 in the experiment with CAKI-1 was 41 µM (inactive); in the experiment with HCT-116 it was > 100 µM (inactive); with HCT-15, 39.6 µM; with HL-60 it was 42.9 µM (inactive); in the experiment with HOP-92 it was > 100 µM (inactive); with K562, 77.4 µM (inactive). Moreover, the GI50 with KM12 was 44.5 µM (inactive); in the experiment with MOLT-4, 43 µM (inactive); with NCI-H23 it was > 100 µM (inactive); with NCI-H460 it was 32.8 µM (inactive); with NCI/ADR-RES, 77.6 µM (inactive); with RPMI-8226, 27.3 µM (inactive). The GI50 was 70.1 µM (inactive) in the experiment with SF-268; > 100 µM (inactive) in the experiment with SN12C; > 100 µM (inactive) in the experiment with SNB-19; 34.7 µM (inactive) with SW-620; 4.07 µM (inactive) in the experiment on UACC-257; 75.7 µM (inactive) in the experiment on UACC-62.
In the case of `NC1(C(=O)NC2(C(=O)O)CCCC2)CCCC1` (H-[Ac5c]-[Ac5c]-OH), the GI50 with CAKI-1 was > 100 µM (inactive); in the experiment on HCT-116, > 100 µM (inactive); in the experiment on HCT-15, above 100 µM; in the experiment with HL-60 it was > 100 µM (inactive); with HOP-92, > 100 µM (inactive); with K562, > 100 µM (inactive). The GI50 in the experiment with KM12, in the experiment on MOLT-4, in the experiment with NCI-H23, with NCI-H460, with NCI/ADR-RES and in the experiment with OVCAR-5 was > 100 µM (inactive) in each case. Also, the GI50 in the experiment on RPMI-8226, in the experiment on SF-268, in the experiment on SN12C, in the experiment with SNB-19, in the experiment on SW-620 and in the experiment with UACC-257 was > 100 µM (inactive) each time. In the experiment on UACC-62, the GI50 was > 100 µM (inactive).
`ClC1=NSSC1(Cl)Cl`: the GI50 was 18.5 µM (inactive) in the experiment on CAKI-1; > 100 µM (inactive) with HCC 2998; 30.6 µM (inactive) in the experiment with HCT-116; 18.4 µM in the experiment on HCT-15; 2.4 µM (inactive) with HL-60; > 10 µM (inactive) in the experiment on HOP-92. In addition, the GI50 in the experiment with K562 was 5.9 µM (inactive); in the experiment on KM12 it was 71.1 µM (inactive); with MOLT-4, 14.8 µM (inactive); with NCI-H23 it was > 100 µM (inactive); with NCI-H460, 36.9 µM (inactive); with NCI/ADR-RES, 34.8 µM (inactive). The GI50 is 29.9 µM (inactive) in the experiment with OVCAR-5; 23.5 µM (inactive) in the experiment with RPMI-8226; 22.1 µM (inactive) in the experiment on SN12C; 90.4 µM (inactive) in the experiment with SNB-19; 20.7 µM (inactive) in the experiment on SW-620; 51.8 µM (inactive) with UACC-257. Also, in the experiment with UACC-62, the GI50 was 45.7 µM (inactive).
Consider `O=C1c2ccccc2-c2ccc(NC(=O)C3CCCCC3C(=O)O)cc21` (stereo not drawn), for which the GI50 in the experiment with CAKI-1 was > 100 µM (inactive); in the experiment on HCT-116, > 100 µM (inactive); with HCT-15 it was above 100 µM; with HL-60, > 100 µM (inactive); in the experiment with HOP-92, > 100 µM (inactive); in the experiment on K562 it was > 100 µM (inactive). For the same molecule, the GI50 in the experiment with KM12, with MOLT-4, in the experiment with NCI-H23, with NCI-H460, in the experiment with NCI/ADR-RES and in the experiment with OVCAR-5 was > 100 µM (inactive) each time. Besides, the GI50 in the experiment with RPMI-8226 was > 100 µM (inactive); in the experiment on SF-268, > 100 µM (inactive); in the experiment on SN12C, 96.4 µM (inactive); in the experiment with SNB-19, > 100 µM (inactive); with SW-620, > 100 µM (inactive); in the experiment on UACC-257 it was > 100 µM (inactive). Moreover, the GI50 in the experiment with UACC-62 is > 100 µM (inactive).
For the molecule `CN(C)CC1COC2Cc3ccccc3C1O2` (stereo not drawn), the GI50 in the experiment with CAKI-1 was > 100 µM (inactive); with HCC 2998, > 100 µM (inactive); in the experiment on HCT-116, > 100 µM (inactive); in the experiment with HCT-15 it was above 100 µM; in the experiment with HL-60, 72.6 µM (inactive); in the experiment with HOP-92, > 100 µM (inactive). Also, the GI50 with K562, in the experiment on KM12, in the experiment with MOLT-4, with NCI-H23, in the experiment with NCI-H460 and in the experiment on NCI/ADR-RES was > 100 µM (inactive) each time. Also, the GI50 with OVCAR-5, in the experiment with RPMI-8226, in the experiment with SF-268, with SN12C, with SNB-19 and with UACC-257 was > 100 µM (inactive) throughout.
For `CCOc1nc(-c2ccccc2)cc(-c2ccc(N3CCOCC3)cc2)c1C#N`, the GI50 in the experiment with CAKI-1 was > 100 µM (inactive); in the experiment on HCC 2998 it was > 100 µM (inactive); with HCT-116 it was > 100 µM (inactive); in the experiment with HCT-15 it was above 100 µM; in the experiment with HL-60, > 100 µM (inactive); in the experiment on HOP-92, > 100 µM (inactive). Also, the GI50 in the experiment on K562, in the experiment on KM12, in the experiment on MOLT-4, in the experiment on NCI-H23, with NCI-H460 and in the experiment on NCI/ADR-RES was > 100 µM (inactive) in each case. Also, the GI50 in the experiment on OVCAR-5 was > 100 µM (inactive); with RPMI-8226, 77.4 µM (inactive); in the experiment on SF-268 it was > 100 µM (inactive); in the experiment on SN12C it was > 100 µM (inactive); with SNB-19, > 100 µM (inactive); in the experiment with SW-620 it was > 100 µM (inactive). Further, the GI50 in the experiment with UACC-257 is 19.1 µM (inactive).
Regarding `O=Cc1cn(CCCCCCCCCCCCn2cc(C=O)c3ccccc32)c2ccccc12`, the GI50 is > 100 µM (inactive) in the experiment on CAKI-1; > 100 µM (inactive) with HCC 2998; 2.25 µM (inactive) in the experiment with HCT-116; above 100 µM in the experiment with HCT-15; 1.56 µM (inactive) in the experiment with HL-60; > 100 µM (inactive) in the experiment with HOP-92. The GI50 in the experiment with K562 was 0.615 µM (active); in the experiment on MOLT-4, > 100 µM (inactive); in the experiment with NCI-H23, 3.53 µM (inactive); in the experiment with NCI-H460, > 10 µM (inactive); in the experiment on NCI/ADR-RES, 1.46 µM (inactive); with OVCAR-5, 99.1 µM (inactive). The GI50 in the experiment on SF-268 was > 100 µM (inactive); with SN12C, > 100 µM (inactive); with SNB-19, > 100 µM (inactive); in the experiment on SW-620 it was > 100 µM (inactive); in the experiment with UACC-257 it was 2.47 µM (inactive); in the experiment on UACC-62, > 100 µM (inactive).
